# “Also recorded” adds a separate entry of the source.
# Assays:
# Topo IIα [1] = molecular target: T1, Topo IIα (Homo sapiens, UniProt P11388); experiment: DNA relaxation assay with supercoiled pHOT plasmid; format: biochemical; set-up: purchased TopoGENE (TopoGEN) TG2000H; settings: 0-50 μM, 37° C., 1 hour
# Description: DNA samples were separated by electrophoresis on 0.8% agarose gels and visualized by ethium bromide staining. The positions of K-DNA and decatenated (D) DNA products are marked by arrows. Experiments were repeated five times and the densitometry of the D bands were used to establish an inhibition curve to calculate IC50. (b) Supercoiled pHOT™ plasmid was incubated with human TOP2a in the presence of 50 μM Etopside, 50 uM ICRF193 or 0-50 μM of compound #60 (Top60) compound at 37° C. for 1 hour. DNA products were separated by electrophoresis on 1% agarose gels and visualized by ethium bromide staining. The positions of supercoiled (SC), nicked (N), and relaxed (R) DNA bands are marked by arrows. Experiments were repeated five times and the densitometiy of the SC bands were used to establish an inhibition curve to calculate IC50. (c) Supercoiled pHOT™ plasmid was incubated with Topoisomerase I prior to addition of either mAMSA or compound #60 (Top60) at concentrations of 0, 5, 10, 25 and 50 μM at 37° C. for 30 minutes. Reactions were stopped by 1% SDS at 37° C. for 15 minutes. DNA products were separated by electrophoresis on a 1% agarose gels and visualized by ethium bromide staining. […]
# [2] = system: Etoposide-resistant K562 cell line; experiment: MTS cell proliferation assay in Etoposide-resistant cells; format: cell-based; settings: 0-20 μM, 48 hours; cells with downregulated Topo II
# Description: (§1) Whole cell lyses were collected and used to measure protein levels of TOP2α, TOP2β with β-Actin as a loading control; (b) K562 cells were treated with 0, 1, and 10 μM of Top60 for 24 hours. Protein lyses were collected from soluble nuclear extract, chromatin fraction or whole cell lysate. TOP2α and TOP2β protein levels were determined by immunoblotting with Lamin A/C, Histone H3 and β-Actin as loading controls; and (c) Etoposide-resistant K562 cell line was established by treating cells with 0.5 μM of Etoposide for 6 months. TOP2α, TOP2β, and β-actin protein levels were determined by immunoblotting. Etoposide-resistant K562 cells were treated with 0, 1, 10, 15 and 20 μM of Top60, Etoposide or ICRF187 for 48 hours. Cell proliferation rates were determined by MTS assays.
# In order to asses binding of the lead compound to Topo II, a thermal shift assay was performed. […] It was observed that Topo IIα was stabilized up to 43° C. in the presence of the lead compound (FIG. 4A). Furthermore, cellular fractionation was performed to assess localized changes in Topo II in response to compound treatment. As Topo IIα is important for decatenating DNA during cellular replication, it is expected to be chromatin bound. […] To further verily that Topo II is the only observable target of Top60, Etoposide resistant cell lines were bred. […]
# Topo IIα [3] = molecular target: T1, Topo IIα; experiment: Chromatin fraction assay; format: cell-based; set-up: endogenous in cells; host or cells: K562; settings: K562 cells, 0, 1 and 10 μM, 24 hours
# Description: as §1
# Thermal shift and chromatin fraction assays—In the thermal shift assays, cells were treated with vehicle or compound #60 (Top60) for 1 hour, split into equal aliquots to be heated at 37 to 46 degrees in a PCR machine. Protein lyses were collected to perform immunoblotting assays with Topo II antibodies. In the chromatin fraction assays, cells were treated with vehicle or compound #60 (Top60). Both soluble and chromatin associated proteins were fractioned following the protocol described by Wysocka J et al.^18. Protein lyses were collected to perform immunoblotting assays with Topo II antibodies. […]
# Hela cells = experiment: LDH cytotoxicity assay; format: cell-based; settings: 0-20 μM, 48 hours, listed as Top60
# Description: (§2) Cytotoxicity was evaluated by measuring LDH levels from cell culture media; (b) K562 cells were treated with either vehicle or 10-20 μM of Top60, Etoposide and ICRF187 for 4 hours. Whole cell lyses were collected to measure γH2AX levels with vinculin as the loading control; (c) K562 cells were treated with 0, 1, 5, 10, 15 and 20 μM of Top60, 20 μM Etoposide or 20 uM ICRF187 for 48 hours. Cell proliferation rates were determined by MTS assays; and (d) K562 cells were treated with 20 μM of Top60, Etoposide or ICRF187 for 0, 24, 48 and 72 hours. Cell proliferation rates were measured by MTS assays. All results were collected from three independent experiments.
# Cytotoxicity assay—Cytotoxicity assays were performed using the commercial kit from Pierce (CAT #8078). Briefly, culture media was collected and used to measure lactate dehydrogenase (LDH) levels by a colorimetric method following manufacture's protocol.
# K562 cells = experiment: MTS cell proliferation assay; format: cell-based; settings: 0-20 μM 48 hours, 20 μM 0-72 hours, listed as Top60
# Description: as §2
# BrDU incorporation and cell proliferation assays—Cell proliferation rates were measured by using the CellTitre™ 96 AqueousOne™ kit (Promega™) and bromodeoxyuridine (BrdU) assay kit (Millipore™) according to the manufacturer's protocol, with minor modifications as we have previously described by Li H. et al.^19
# T1 sequence (P11388 whole entry): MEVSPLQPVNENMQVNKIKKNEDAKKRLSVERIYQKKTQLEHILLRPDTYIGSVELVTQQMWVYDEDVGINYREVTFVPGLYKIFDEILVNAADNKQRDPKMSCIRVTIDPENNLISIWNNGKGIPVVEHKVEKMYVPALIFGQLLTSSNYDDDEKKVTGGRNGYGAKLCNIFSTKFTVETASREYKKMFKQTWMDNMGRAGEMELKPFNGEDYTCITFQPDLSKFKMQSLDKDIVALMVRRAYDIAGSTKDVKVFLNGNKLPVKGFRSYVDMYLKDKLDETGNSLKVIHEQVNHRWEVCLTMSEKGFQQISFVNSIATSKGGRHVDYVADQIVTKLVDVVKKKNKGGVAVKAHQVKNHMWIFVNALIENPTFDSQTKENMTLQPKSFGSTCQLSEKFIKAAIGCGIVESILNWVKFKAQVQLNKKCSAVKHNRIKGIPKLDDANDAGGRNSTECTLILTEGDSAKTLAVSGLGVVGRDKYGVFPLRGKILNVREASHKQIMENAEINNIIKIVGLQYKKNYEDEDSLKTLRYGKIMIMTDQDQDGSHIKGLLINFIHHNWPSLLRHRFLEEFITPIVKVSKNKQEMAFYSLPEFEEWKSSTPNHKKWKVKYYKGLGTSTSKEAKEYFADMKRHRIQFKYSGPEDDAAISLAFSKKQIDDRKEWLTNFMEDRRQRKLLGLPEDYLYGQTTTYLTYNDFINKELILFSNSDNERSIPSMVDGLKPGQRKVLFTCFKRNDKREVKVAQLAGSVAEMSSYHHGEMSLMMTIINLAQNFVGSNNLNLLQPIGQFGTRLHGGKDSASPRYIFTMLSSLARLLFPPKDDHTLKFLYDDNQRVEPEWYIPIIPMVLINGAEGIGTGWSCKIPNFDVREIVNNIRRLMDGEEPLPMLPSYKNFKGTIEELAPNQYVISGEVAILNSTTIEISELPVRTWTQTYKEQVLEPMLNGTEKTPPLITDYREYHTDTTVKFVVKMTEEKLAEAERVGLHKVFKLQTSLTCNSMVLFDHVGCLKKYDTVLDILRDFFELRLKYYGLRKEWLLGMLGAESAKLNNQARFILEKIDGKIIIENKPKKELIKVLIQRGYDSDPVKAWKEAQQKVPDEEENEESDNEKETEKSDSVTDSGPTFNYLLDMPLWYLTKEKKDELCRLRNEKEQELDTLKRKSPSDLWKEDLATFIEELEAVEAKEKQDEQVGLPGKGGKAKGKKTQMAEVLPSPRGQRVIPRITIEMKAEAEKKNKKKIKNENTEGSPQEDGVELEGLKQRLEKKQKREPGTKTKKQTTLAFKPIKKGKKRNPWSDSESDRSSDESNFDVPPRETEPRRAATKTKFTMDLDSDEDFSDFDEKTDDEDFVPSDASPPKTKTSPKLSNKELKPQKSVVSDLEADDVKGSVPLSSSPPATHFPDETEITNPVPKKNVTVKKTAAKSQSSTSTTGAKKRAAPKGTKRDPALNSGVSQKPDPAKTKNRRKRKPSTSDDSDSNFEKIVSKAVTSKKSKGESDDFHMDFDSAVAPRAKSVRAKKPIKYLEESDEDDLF
smiles,measurement,setting,value
O=C(Nc1ccc(Nc2ccccc2)cc1)c1ccc[nH]c1=S [Compound 60],IC50 in the relaxation assay,Topo IIα [1],nanomolar
same,inhibitory effects on Etoposide resistant cells,[2],dramatically reduced
same,chromatin binding of Topo IIα,Topo IIα [3],became unbound from chromatin
same,cytotoxicity (LDH levels in culture media),Hela cells,Low cytotoxic affect; also recorded: low cytotoxicity
same,cell proliferation (MTS),K562 cells,strong inhibitory effects; also recorded: inhibits cell proliferation

# Source: US20210379077A1, “TOPOISOMERASE II CATALYTIC INHIBITOR COMPOUND THERAPEUTICS FOR CANCER TREATMENT, METHODS AND USES” (The University of British Columbia, priority 2018, published 2021)
